From patent US6630469B2, “5-HT7 receptor antagonists” (Bristol-Myers Squibb Company, priority 2000, dated 2003) come the findings set out here.

Values joined by “and” are separate entries in the source; they are usually repeats but may differ in a detail not shown here. Equal entries are not always repeated.

The term IC50 denotes the point on the concentration scale where inhibition reaches its midpoint. The low end stands for greater potency in that assay, the high end for weaker potency in that assay.

T1 sequence (P34969 whole entry): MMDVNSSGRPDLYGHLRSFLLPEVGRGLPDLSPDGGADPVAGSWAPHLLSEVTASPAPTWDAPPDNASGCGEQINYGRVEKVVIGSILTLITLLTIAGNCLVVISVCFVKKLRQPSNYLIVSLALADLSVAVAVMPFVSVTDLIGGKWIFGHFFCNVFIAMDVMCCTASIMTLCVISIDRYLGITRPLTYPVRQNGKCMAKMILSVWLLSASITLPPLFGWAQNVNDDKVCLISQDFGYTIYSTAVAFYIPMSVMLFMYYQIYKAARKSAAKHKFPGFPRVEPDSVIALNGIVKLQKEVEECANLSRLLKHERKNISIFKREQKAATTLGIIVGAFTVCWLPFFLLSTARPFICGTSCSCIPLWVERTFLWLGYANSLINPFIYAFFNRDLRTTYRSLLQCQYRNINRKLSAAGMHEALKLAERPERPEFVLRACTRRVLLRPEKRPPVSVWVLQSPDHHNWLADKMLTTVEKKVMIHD

The test addresses T1, human 5-HT7 receptor (Homo sapiens, UniProt P34969).
T1 construct: expressed in transfected cells; host or cells: CHO cells
The experiment in a line: 5-HT7 Receptor Binding Assay. The settings on record: membranes of CHO cells expressing human 5-HT7 receptor; 1 nM 3H-5-carboxamidotryptamine; 25° C., 60 minutes. The essentials: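 Membranes from CHO cells expressing human 5-HT7, 30 ug protein per well, incubated 60 min at 25° C in 50 mM HEPES with 0.1–1000 nM test compound and 1 nM ^3H-5-carboxamidotryptamine. Non-specific binding with 10 uM serotonin. Filtration and scintillation counting; IC50 by non-linear regression.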
In turn, `c1ccc(CCNc2nccc(NCc3cccs3)n2)cc1` [Compound 27, N^2-(2-Phenylethyl)-N^4-(2-thienylmethyl)pyrimidine-2,4-diamine] yielded an IC50 not above 50 nM.
Then `COc1ccc(CCNc2nccc(NC(C)c3ccccc3)n2)cc1` (stereo not shown) [N^2-[2-(4-Methoxyphenyl)ethyl]-N^4-(1-phenylethyl)pyrimidine-2,4-diamine], with 101 to 200 nM; and `CS(=O)(=O)Nc1cccc(CNc2ccnc(NCCOc3ccccc3)n2)c1` [Compound 14, N^4-{3-[(Methylsulfonyl)amino]phenylmethyl}-N^2-(2-phenoxyethyl)pyrimidine-2,4-diamine], with not above 50 nM.
Then `C[C@H](Nc1nc(N)nc(NCCc2ccccc2)n1)c1cccc2ccccc12` [Compound 56, N^2-[(1S)-1-(1-Napthalenyl)ethyl]-N^4-(2-phenylethyl)-1,3,5-triazine-2,4,6-triamine], with 51 to 100 nM.
Compound `CC(C)(Nc1ccnc(NCCc2ccccc2)n1)c1ccccc1` [N^4-(1-Methyl-1-phenyl)ethyl)-N^2-(2-phenylethyl)pyrimidine-2,4-diamine] registered an IC50 not above 50 nM.
Under `CC(Nc1ccnc(NCCOc2ccccc2)n1)c1ccc(Cl)cc1` (stereo not shown) [N^4-[1-(4-Chlorophenyl)ethyl]-N^2-(2-phenoxyethyl)pyrimidine-2,4-diamine] stands not above 50 nM.
Under `CC[C@H](Nc1nc(N)nc(NCCc2ccc(C)cc2)n1)c1ccccc1` [Compound 49, N^2-[2-(4-Methylphenyl)ethyl]-N^4-[(1S)-1-phenylpropyl]-1,3,5-triazine-2,4,6-triamine] stands 51 to 100 nM.
Under `CC[C@H](Nc1nc(N)nc(NCCc2ccc(Cl)cc2)n1)c1ccccc1` [Compound 32, N^2-[2-(4-Chlorophenyl)ethyl]-N^4-[(1S)-1-phenylpropyl]-1,3,5-triazine-2,4,6-triamine] stands 101 to 200 nM; under `CC(Nc1ccnc(NCCc2ccc(F)cc2)n1)c1ccccc1` (stereo not shown) [N^2-[2-(4-Fluorophenyl)ethyl]-N^4-(1-phenylethyl)pyrimidine-2,4-diamine], not above 50 nM; under `Clc1cccc(CNc2ccnc(NCCOc3ccccc3)n2)c1` [N^4-(3-Chlorophenylmethyl)-N^2-(2-phenoxyethyl)pyrimidine-2,4-diamine], not above 50 nM.
Compound `C[C@H](Nc1ccnc(NCCc2ccccc2)n1)c1cccc2ccccc12` [Compound 24, N^4-[(1S)-1-(1-Napthalenyl)ethyl]-N^2-(2-phenylethyl)pyrimidine-2,4-diamine] had an IC50 not above 50 nM.
Then `C[C@H](Nc1nc(N)nc(NCCc2ccccn2)n1)c1ccc(F)cc1` [Example 18, N^2-[(1S)-1-(4-Fluorophenyl)ethyl]-N^4-[2-(2-pyridinyl)ethyl]-1,3,5-triazine-2,4,6-triamine], with not above 50 nM; and `CC[C@H](Nc1nc(N)nc(NCCc2cccc(Cl)c2)n1)c1ccccc1` [Compound 69, N^2-[2-(3-Chlorophenyl)ethyl]-N^4-[(1S)-1-phenylpropyl]-1,3,5-triazine-2,4,6-triamine], with not above 50 nM.
Under `CC(Nc1ccnc(NCCc2c[nH]c3ccc(F)cc23)n1)c1ccccc1` (stereo not shown) [Compound 3] stands 101 to 200 nM; under `Clc1ccc(CNc2ccnc(NCCOc3ccccc3)n2)cc1` [N^4-(4-Chlorophenylmethyl)-N^2-(2-phenoxyethyl)pyrimidine-2,4-diamine], not above 50 nM.
Then `CC(Nc1ccnc(NCCc2cccs2)n1)c1ccccc1` (stereo not shown) [Compound 29, N^4-(1-Phenylethyl)-N^2-[2-(2-thienyl)ethyl]pyrimidine-2,4-diamine], with not above 50 nM; and `C[C@H](Nc1nc(N)nc(NCCc2ccc(F)cc2)n1)c1ccc([N+](=O)[O-])cc1` [Compound 74, N^2-[2-(4-Fluorophenyl)ethyl]-N^4-[(1S)-1-(4-nitrophenyl)ethyl]-1,3,5-triazine-2,4,6-triamine], with not above 50 nM; and `C[C@H](Nc1cc(NCCc2ccc(O)cc2)ncn1)c1ccccc1` [N^4-[2-(4-Hydroxyphenyl)ethyl]-N^6-[(1S)-1-phenylethyl]pyrimidine-4,6-diamine], with not above 50 nM.
As to `C[C@H](Nc1ccnc(NCCOc2ccccc2)n1)c1ccc(Br)cc1` [Compound 13, N^4-[(1S)-1-(4-Bromophenyl)ethyl]-N^2-(2-phenoxyethyl)pyrimidine-2,4-diamine], the IC50 is not above 50 nM.
Then `CC(Nc1ccnc(N(C)CCc2c[nH]c3ccccc23)n1)c1ccccc1` (stereo not shown) [Compound 30, N^2-[2(1H-Indol-3-yl)ethyl]-N^2-(methyl)-N^4-(1-phenylethyl)pyrimidine-2,4-diamine], with not above 50 nM.
Under `C[C@H](Nc1nc(N)nc(NCCc2ccccc2F)n1)c1ccccc1` [Compound 48, N^2-[2-(2-Fluorophenyl)ethyl]-N^4-[(1S)-1-phenylethyl]-1,3,5-triazine-2,4,6-triamine] stands 51 to 100 nM; under `Cc1ccc(CCNc2nc(N)nc(N[C@@H](C)c3ccc(Br)cc3)n2)cc1` [Compound 34, N^2-[(1S)-1-(4-Bromophenyl)ethyl]-N^4-[2-(4-methylphenyl)ethyl]-1,3,5-triazine-2,4,6-triamine], 101 to 200 nM; under `CC[C@@H](Nc1ccnc(NCCOc2ccccc2)n1)c1ccccc1` [N^2-(2-Phenoxyethyl)-N^4-[(1R)-1-phenylpropyl]pyrimidine-2,4-diamine], 101 to 200 nM.
Under `C[C@H](Nc1nc(N)nc(NCCc2cccc(F)c2)n1)c1ccc(Br)cc1` [Compound 68, N^2-[(1S)-1-(4-Bromophenyl)ethyl]-N^4-[2-(3-fluorophenyl)ethyl]-1,3,5-triazine-2,4,6-triamine] stands not above 50 nM; under `Clc1ccc(CNc2ccnc(NCCc3ccccc3)n2)cc1Cl` [N^4-(3,4-Dichlorophenylmethyl)-N^2-(2-phenylethyl)pyrimidine-2,4-diamine], 101 to 200 nM.
For `CC(Nc1nc(N)nc(NC[C@@H]2C[C@H]2c2ccc(F)cc2)n1)c1ccccc1` (mixture of isomers) [(±)-trans-N-[2-(4-Fluoro-phenyl)-cyclopropylmethyl]-N′-(1-phenyl-ethyl)-[1,3,5]triazine-2,4,6-triamine], the IC50 was ≤ 100 nM and > 50 nM.
Then `Fc1ccc(CNc2ccnc(NCCOc3ccccc3)n2)cc1Cl` [N^4-(3-Chloro-4-fluorophenylmethyl)-N^2-(2-phenoxyethyl)pyrimidine-2,4-diamine], with not above 50 nM.
Then `c1ccc(CCNc2nccc(NCc3ccncc3)n2)cc1` [N^2-(2-Phenylethyl)-N^4-(4-pyridinylmethyl)pyrimidine-2,4-diamine], with 101 to 200 nM.
Under `COc1cccc(CCNc2nc(C)cc(N[C@@H](C)c3ccccc3)n2)c1` [N^2-[2-(3-Methoxyphenyl)ethyl]-6-methyl-N^4-[(1S)-1-phenylethyl]pyrimidine-2,4-diamine] stands not above 50 nM; under `CC(=O)Nc1cccc(CCNc2nc(C)cc(N[C@@H](C)c3ccccc3)n2)c1` [N^2-[2-(3-Acetamidophenyl)ethyl]-6-methyl-N^4-[(1S)-1-phenylethyl]pyrimidine-2,4-diamine], 101 to 200 nM; under `Clc1ccc(CNc2ccnc(NCCc3ccccc3)n2)cc1` [N^4-(4-Chlorophenylmethyl)-N^2-(2-phenylethyl)pyrimidine-2,4-diamine], not above 50 nM.
In the case of `CC(Nc1ccnc(NCCc2cccnc2)n1)c1ccccc1` (stereo not shown) [Compound 1, N^4-(1-Phenylethyl)-N^2-[2-(3-pyridinyl)ethyl]pyrimidine-2,4-diamine], the IC50 was 101 to 200 nM.
Regarding `c1ccc(CCNc2nccc(NCc3ccco3)n2)cc1` [Compound 2, N^4-(2-Furanylmethyl)-N^2-(2-phenylethyl)pyrimidine-2,4-diamine], the IC50 lay in the range of 101 to 200 nM.
Compound `COc1ccc(CNc2ccnc(NCCc3ccccc3)n2)cc1` [N^4-(4-Methoxyphenylmethyl)-N^2-(2-phenylethyl)pyrimidine-2,4-diamine] returned an IC50 not above 50 nM.
`CC(Nc1ccnc(N(C)CCc2ccccc2)n1)c1ccccc1` (stereo not shown) [N^2-(Methyl)-N^2-(2-phenylethyl)-N^4-(1-phenylethyl)pyrimidine-2,4-diamine] yielded an IC50 not above 50 nM.
Then `C[C@H](Nc1nc(N)nc(NCCc2ccc(O)cc2)n1)c1ccc([N+](=O)[O-])cc1` [Compound 75, N^2-[2-(4-Hydroxyphenyl)ethyl]-N^4-[(1S)-1-(4-nitrophenyl)ethyl]-1,3,5-triazine-2,4,6-triamine], with not above 50 nM.
Then `Cc1cccc(CNc2ccnc(NCCc3ccccc3)n2)c1` [N^4-(3-Methylphenylmethyl)-N^2-(2-phenylethyl)pyrimidine-2,4-diamine], with not above 50 nM.
The compound `FC(F)(F)c1ccc(CNc2ccnc(NCCOc3ccccc3)n2)cc1` [N^2-(2-Phenoxyethyl)-N^4-[4-(trifluoromethyl)phenylmethyl]pyrimidine-2,4-diamine] had an IC50 of 101 to 200 nM.
Under `C[C@@H](Nc1ccnc(NCCOc2ccccc2)n1)c1ccccc1` [N^2-(2-Phenoxyethyl)-N^4-[(1R)-1-phenylethyl]pyrimidine-2,4-diamine] stands 101 to 200 nM; under `c1ccc(CCNc2nccc(NCc3cccnc3)n2)cc1` [Compound 11, N^2-(2-Phenylethyl)-N^4-(3-pyridinylmethyl)pyrimidine-2,4-diamine], 51 to 100 nM; under `Cc1ccc(CCNc2nc(N)nc(N[C@@H](C)c3ccccc3)n2)cc1` [Compound 72, N^2-[2-(4-Methylphenyl)ethyl]-N^4-[(1S)-1-phenylethyl]-1,3,5-triazine-2,4,6-triamine], not above 50 nM.
Then `CC(Nc1nccc(NCCOc2ccc(F)cc2)n1)c1ccccc1` (stereo not shown) [N^4-[2-(4-Fluorophenoxy)ethyl]-N^2-(1-phenylethyl)pyrimidine-2,4-diamine], with not above 50 nM; and `Cc1cc(N[C@@H](C)c2ccccc2)nc(NCCc2cccc(Br)c2)n1` [N^2-[2-(3-Bromophenyl)ethyl]-6-methyl-N^4-[(1S)-1-phenylethyl]pyrimidine-2,4-diamine], with not above 50 nM.
